Data set [1] has as its system mice. The data set can be described thus: In vivo delivery of FLuc-mRNA lipid nanoparticles in mice, in vivo imaging (IVIS). An outline of the steps:
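Mice (n=3) received about 75 μL FLuc-mRNA LNP per mouse intramuscularly (rectus femoris), intravenously (tail vein), intraperitoneally or subcutaneously (back). After injection, D-luciferin (200 μL, 15 mg/mL) was given i.p. 10-15 min before IVIS imaging.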

Data set [2] is described as follows: Particle size and PDI of nucleic acid lipid nanoparticle preparations by dynamic light scattering. Format: physicochemical. Summed up:
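Nanoparticle suspension (about 0.04 mg/mL mRNA) diluted in ultrapure water, mixed by gentle pipetting; particle size measured by dynamic light scattering. Zeta potential measured on the recovered sample after further dilution in ultrapure water.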

Data set [3] is described as follows: Potential characterization of nucleic acid lipid nanoparticle preparations. The data set is classed as physicochemical. Summed up: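 Nanoparticles (about 0.04 mg/mL mRNA) were diluted in ultrapure water for Malvern ZEN3700 measurement: 20 μL into 780 μL for potential alone, or 27.5 μL into 200 μL for DLS particle size followed by addition of 600 μL water for potential.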

Data set [4] deals with mice. Description: In vivo delivery of FLuc-circ-RNA lipid nanoparticles in mice. The settings on record: Fluc-circ-RNA LNP; for IVIS: organ not given. The method, then: Lipid nanoparticles loaded with nucleic acid drugs were prepared according to step 2, replacing FLuc-mRNA with FLuc-circ-RNA (Hongene Biotech Corporation, Shanghai). After formulation, the nanoparticles were administered via intramuscular injection (into the quadriceps femoris muscle of mice), intravenous injection (into the tail vein of mice), intraperitoneal injection, or subcutaneous injection (subcutaneously on the back). Approximately 75 μL was injected per mouse, with a total of 3 mice per group. In vivo imaging (PerkinElmer, IVIS Lumina III) was performed after a certain period of time. Ten to fifteen minutes before imaging, 200 μL of a 15 mg/mL D-Luciferin working solution was injected intraperitoneally, followed by imaging analysis using the in vivo imaging system.

Setting [5] is: DMG-PEG2000:DSPC:Chol:Lipid 1.40:11.15:38.95:48.50, N/P 30, IV, liver.
[6] abbreviates: DMG-PEG2000:DSPC:Chol:Lipid 1.40:11.15:38.95:48.50, N/P 30, IV, lung.
The mark [7] stands for this setting: DMG-PEG2000:DSPC:Chol:Lipid 1.40:11.15:38.95:48.50, N/P 30, IV, spleen.
Where [8] appears, read: DMG-PEG2000:DSPC:Chol:Lipid 4.00:8.00:58.00:30.00, N/P 36, IV, liver.
[9] abbreviates: DMG-PEG2000:DSPC:Chol:Lipid 4.00:8.00:58.00:30.00, N/P 36, IV, lung.
[10] abbreviates: DMG-PEG2000:DSPC:Chol:Lipid 4.00:8.00:58.00:30.00, N/P 36, IV, spleen.
Where [11] appears, read: DMG-PEG2000:DSPC:Chol:Lipid 1.40:11.15:38.95:48.50, N/P 30, mRNA LNP.
Where [12] appears, read: DMG-PEG2000:DSPC:Chol:Lipid 4.00:8.00:58.00:30.00, N/P 36, mRNA LNP.
Setting [13] is: DMG-PEG2000:DSPC:Chol:compound 1.00:10.00:33.00:56.00, N/P 48.
The mark [14] stands for this setting: Fluc-circ-RNA LNP, preparation given IV.
Setting [15] is: DMG-PEG2000:DSPC:Chol:Lipid 1.40:11.15:38.95:48.50, N/P 10, IV, liver.
The mark [16] stands for this setting: DMG-PEG2000:DSPC:Chol:Lipid 1.40:11.15:38.95:48.50, N/P 10, IV, lung.
The mark [17] stands for this setting: DMG-PEG2000:DSPC:Chol:Lipid 1.40:11.15:38.95:48.50, N/P 10, IV, spleen.
The mark [18] stands for this setting: DMG-PEG2000:DSPC:Chol:Lipid 1.40:11.15:38.95:48.50, N/P 10, mRNA LNP, preparation given IH.
Where [19] appears, read: DMG-PEG2000:DSPC:Chol:Lipid 1.40:11.15:38.95:48.50, N/P 10, mRNA LNP, preparation given IV.
[20] abbreviates: Fluc-circ-RNA LNP, preparation given IM.
The mark [21] stands for this setting: DSPE-PEG5000:DSPC:Chol:compound 1.40:11.15:38.95:48.50, N/P 30.
Setting [22] is: DMG-PEG2000:DSPC:Chol:compound 1.40:11.15:38.95:48.50, N/P 20.
Setting [23] is: DMG-PEG2000:DPPC:Chol:compound 1.40:11.15:38.95:48.50, N/P 30.

Consider `CCCCCCCCCCCCNC(=O)C(O)CN(CCCN(CCO)CCCN(CC(O)C(=O)NCCCCCCCCCCCC)CC(O)C(=O)NCCCCCCCCCCCC)CC(O)C(=O)NCCCCCCCCCCCC` (stereo not shown) [Compound L0281], for which the IVIS in data set [1] (DMG-PEG2000:DSPC:Chol:Lipid 1.40:11.15:38.95:48.50, N/P 30, IM, whole body scan) is listed as 1.38 × 10^6; in data set [1] (DMG-PEG2000:DSPC:Chol:Lipid 1.40:11.15:38.95:48.50, N/P 30, IV, body (whole body scan)), 6.41 × 10^7; in data set [1] (setting [5]), 3.17 × 10^6; in data set [1] (setting [6]) it was 1.55 × 10^8; in data set [1] (setting [7]), 7.89 × 10^6; in data set [1] (DMG-PEG2000:DSPC:Chol:Lipid 4.00:8.00:58.00:30.00, N/P 36, IV, body), 7.07 × 10^7. Besides, the IVIS in data set [1] (setting [8]) is listed as 1.28 × 10^7; in data set [1] (setting [9]), 6.52 × 10^5; in data set [1] (setting [10]), 4.68 × 10^7; in data set [1] (IV, body, DMG-PEG2000:DSPC:Chol:compound 1.00:10.00:33.00:56.00, N/P 48, Fluc-mRNA) it was 4.66E+08; in data set [1] (IV, liver, DMG-PEG2000:DSPC:Chol:compound 1.00:10.00:33.00:56.00, N/P 48, Fluc-mRNA) it was 7.58E+06; in data set [1] (IV, lung, DMG-PEG2000:DSPC:Chol:compound 1.00:10.00:33.00:56.00, N/P 48, Fluc-mRNA), 1.02E+09. In data set [1] (IV, spleen, DMG-PEG2000:DSPC:Chol:compound 1.00:10.00:33.00:56.00, N/P 48, Fluc-mRNA), this compound had an IVIS of 1.64E+07. The “% of organ targeting” value in data set [1] (setting [5]) stood at 1.91%; in data set [1] (setting [6]), 93.34%; in data set [1] (setting [7]), 4.75%; in data set [1] (setting [8]), 21.21%; in data set [1] (setting [9]), 1.08%; in data set [1] (setting [10]), 77.71%. Further, the “% of organ targeting” value in data set [1] (IV, liver, DMG-PEG2000:DSPC:Chol:compound 1.00:10.00:33.00:56.00, N/P 48) turned out to be 0.73%; in data set [1] (IV, lung, DMG-PEG2000:DSPC:Chol:compound 1.00:10.00:33.00:56.00, N/P 48), 97.70%; in data set [1] (IV, spleen, DMG-PEG2000:DSPC:Chol:compound 1.00:10.00:33.00:56.00, N/P 48) it was 1.57%; in data set [4] (IV, liver), 0.74%; in data set [4] (IV, lung), 96.58%; in data set [4] (IV, spleen), 2.68%. Besides, the “in vivo delivery efficiency as compared to the benchmark compound SM102” value in data set [1] (certain formulations, Table 2) is recorded as “superior in vivo delivery efficiency”. The “tissue-targeting specificity (lung vs spleen depending on molar percentage of compound)” value in data set [1] (certain formulations, Table 2) is “strong tissue-targeting specificity”. Besides, the PDI worked out at 0.13 ± 0.01 in data set [2] (setting [11]), 0.11 ± 0.01 in data set [2] (setting [12]), 0.14 in data set [2] (setting [13]) and 0.19 in data set [2] (setting [14]). For the same compound, the Particle size in data set [2] (setting [11]) was determined as 118.73 ± 0.90 nm; in data set [2] (setting [12]) it was 104.43 ± 0.96 nm. The “Particle size (nm)” value in data set [2] (setting [13]) was 138.90 nm; in data set [2] (setting [14]) it was 152.1 nm. Further, the results for the “Zeta potential (mV)” value in data set [3] (setting [13]) and in data set [3] (setting [14]) were 14.67 mV and 16.27 mV, respectively.
For the compound `CCCCCCCCCCCOC(=O)CCCCCN(CCO)CCCCCCCC(=O)OC(CCCCCCCC)CCCCCCCC` [SM-102, reference compound], the IVIS in data set [1] (DMG-PEG2000:DSPC:Chol:Lipid 1.40:11.15:38.95:48.50, N/P 10, IH, whole body scan) is 1.62 × 10^7; in data set [1] (DMG-PEG2000:DSPC:Chol:Lipid 1.40:11.15:38.95:48.50, N/P 10, IM, whole body scan), 6.67 × 10^7; in data set [1] (DMG-PEG2000:DSPC:Chol:Lipid 1.40:11.15:38.95:48.50, N/P 10, IV, body), 1.02 × 10^8; in data set [1] (setting [15]), 1.99 × 10^7; in data set [1] (setting [16]) it was 3.11 × 10^5; in data set [1] (setting [17]), 1.23 × 10^7. Moreover, the results for the IVIS in data set [4] (IM) and in data set [4] (IV) were 2.06E+09 and 1.06E+09, respectively. Also, the “% of organ targeting” value was found to be 61.21% in data set [1] (setting [15]), 0.96% in data set [1] (setting [16]) and 37.83% in data set [1] (setting [17]). In data set [1] (certain formulations, Table 2), the “tissue-targeting specificity (lung vs spleen depending on molar percentage of compound)” value is recorded as “not observed”. Moreover, the PDI was determined as 0.16 ± 0.01 in data set [2] (setting [18]), 0.06 ± 0.02 in data set [2] (setting [19]), 0.09 in data set [2] (setting [20]) and 0.19 in data set [2] (setting [14]). Also, the Particle size in data set [2] (setting [18]) was determined as 127.47 ± 2.05 nm; in data set [2] (DMG-PEG2000:DSPC:Chol:Lipid 1.40:11.15:38.95:48.50, N/P 10, mRNA LNP, preparation given IM), 111.27 ± 0.84 nm; in data set [2] (setting [19]), 131.20 ± 1.25 nm. Also, the “Particle size (nm)” value in data set [2] (setting [20]) turned out to be 90.08 nm; in data set [2] (setting [14]) it was 65.67 nm.
As to `CCCCCCCCCCCCN(C)C(=O)C(O)CN(CCCN(CC(O)C(=O)N(C)CCCCCCCCCCCC)CC(O)C(=O)N(C)CCCCCCCCCCCC)CCCN(CC(O)C(=O)N(C)CCCCCCCCCCCC)CC(O)C(=O)N(C)CCCCCCCCCCCC` (stereo not shown) [Compound L0342], the IVIS in data set [1] (IM, DSPE-PEG5000:DSPC:Chol:compound 1.40:11.15:38.95:48.50, N/P 30, Fluc-mRNA) was determined as 2.02E+07; in data set [1] (IV, organ not given, DSPE-PEG5000:DSPC:Chol:compound 1.40:11.15:38.95:48.50, N/P 30, Fluc-mRNA), 5.77E+06. The compound also had a PDI in data set [2] (setting [21]) of 0.24. The “Particle size (nm)” value in data set [2] (setting [21]) turned out to be 73.79 nm. Besides, the “Zeta potential (mV)” value in data set [3] (setting [21]) worked out at 5.68 mV.
The compound `CCCCCCCCCCOC(=O)C(O)CN(CCOCCN(CC(O)C(=O)OCCCCCCCCCC)CC(O)C(=O)OCCCCCCCCCC)CC(O)C(=O)OCCCCCCCCCC` (stereo not shown) [Compound L0314] registered an IVIS in data set [1] (IM, DMG-PEG2000:DSPC:Chol:compound 1.40:11.15:38.95:48.50, N/P 20, Fluc-mRNA) of 3.31E+05. In data set [1] (IV, organ not given, DMG-PEG2000:DSPC:Chol:compound 1.40:11.15:38.95:48.50, N/P 20, Fluc-mRNA), this compound gave an IVIS of 2.35E+05. Further, in data set [2] (setting [22]), the PDI is reported as 0.26 and the “Particle size (nm)” value is 559.3 nm. Besides, the “Zeta potential (mV)” value in data set [3] (setting [22]) was determined as 11.33 mV.
As for `CCCCCCCCCCCCN(C)C(=O)C(O)CN(C)CCCN(C)CCCN(C)CC(O)C(=O)N(C)CCCCCCCCCCCC` (stereo not shown) [Compound L0343], the IVIS in data set [1] (IM, DMG-PEG2000:DPPC:Chol:compound 1.40:11.15:38.95:48.50, N/P 30, Fluc-mRNA) is 9.39E+04; in data set [1] (IV, organ not given, DMG-PEG2000:DPPC:Chol:compound 1.40:11.15:38.95:48.50, N/P 30, Fluc-mRNA), 2.20E+05. In data set [2] (setting [23]), this compound displayed a PDI of 0.24. Further, in data set [2] (setting [23]), the “Particle size (nm)” value worked out at 116.17 nm. In addition, the “Zeta potential (mV)” value in data set [3] (setting [23]) is given as 4.33 mV.

Source of the values: US12233161B1, “Lipids and lipid nanoparticle formulations” (LONGUIDE BIOPHARMA CORPORATION, priority 2024, dated 2025).
